Key:
[1] = molecular target: T1, human CB1 (Homo sapiens (Human), UniProt P21554); assay: In vitro binding affinity, [3H]CP-55,940 radioligand displacement, HEK cell membranes overexpressing human CB1; conditions: [3H]CP-55,940 displacement, read-out: hCB1 Ki
Description: (§1) In vitro binding affinity determination using radioligand displacement. Plasma membranes were isolated from HEK cells overexpressing either human CB1 or CB2. Binding was initiated with the addition of 40 μg of cell membrane proteins to assay tubes containing [3H]CP-55,940 (ca. 130 Ci/mmol), a test compound (for displacement studies), and a sufficient quantity of buffer (50 mM Tris-HCl, 1 mM EDTA, 3 mM MgCl2, 5 mg/mL BSA, pH 7.4) to bring the total incubation volume to 0.5 mL. Nonspecific binding was determined by the inclusion of 10 μM unlabeled CP-55,940. Following incubation at 30° C. for 1 h, binding was terminated by vacuum filtration through GF/C glass fiber filter plates. The filter plates were washed extensively and air-dried and sealed on the bottom. Liquid scintillate was added to the wells and the top sealed. After incubating the plates in cocktail for at least 2 h, the radioactivity present was determined by liquid scintillation spectrometry. Assays were done in duplicate, and results represent combined data from 3-6 experiments. Saturation and displacement data were analyzed by unweighted nonlinear regression of receptor binding data. For displacement studies, curve-fitting and IC50 calculation were done with GraphPad Prism (GraphPad Software, Inc., San Diego, CA).
(§2) Reference is made to the following reference, hereby incorporated by reference with regard to such assay, Zhang et al., Synthesis and biological evaluation of bivalent ligands for the cannabinoid 1 receptor, J Med Chem. 2010 Oct. 14; 53 (19):7048-60. doi: 10.1021/jm1006676.

[2] = molecular target: T1, human CB1; assay: In vitro cannabinoid receptor activity assay (calcium mobilization, FLIPR) in CHO cells expressing human CB1 and Gαq16; assay type: cell-based; conditions: for EC50: CHO cells, hCB1, calcium fluorescence, read-out: hCB1 Ca EC50; for hCB1 Ca Span: percentage of the maximum CP55940 signal
Description: (§3) In vitro cannabinoid receptor activity assay. Chinese Hamster Ovary (CHO) cells stably expressing either human CB1 or CB2 cDNA and the promiscuous G-protein Gαq16 were transferred to each well of a black Costar 96-well optical bottom plate (Corning Corporation). Each plate was incubated at 37° C. for 24 hr to confluence. The culture media was removed from the plates and cells were subsequently loaded with a fluorescent calcium probe (Calcium 5 dye, Molecular Devices) at a final loading concentration of 2 μM in a HBSS-based buffer containing 20 mM HEPES, 1% BSA and 10 μM Probenecid (Sigma) in a total volume of 225 μl. Cells were incubated at 37° C. for 1 hr and then stimulated with various concentrations of a test agent using a FLIPR Tetra plate-reader, which automatically added the agonist at 10× concentration to each well after reading baseline values for ˜17 sec. Agonist-mediated change in fluorescence (488 nm excitation, 525 nm emission) was monitored in each well at 1 sec intervals for 60 sec and reported for each well. Data were analyzed using Prism software (GraphPad). Non-linear regression analysis was performed to fit data and obtain maximum response (Emax), effective concentration for 50% response (EC50), correlation coefficient (r2) and other parameters. All experiments were performed 3-6 times to ensure reproducibility.
(§4) Reference is made to the following reference, hereby incorporated by reference with regard to such assay, Seltzman, et al., Peripherally Selective Cannabinoid 1 Receptor (CB1R) Agonists for the Treatment of Neuropathic Pain, J Med Chem. 2016 Aug. 25; 59 (16):7525-43. doi: 10.1021/acs.jmedchem.6b00516. Epub 2016 Aug. 10.

[3] = molecular target: T2, human CB2 (Homo sapiens (Human), UniProt P34972); assay: In vitro binding affinity, [3H]CP-55,940 radioligand displacement, HEK cell membranes overexpressing human CB2; conditions: [3H]CP-55,940 displacement, read-out: hCB2 Ki
Description: as §1, §2

[4] = molecular target: T2, human CB2; assay: In vitro cannabinoid receptor activity assay (calcium mobilization, FLIPR) in CHO cells expressing human CB2 and Gαq16; assay type: cell-based; conditions: for EC50: CHO cells, hCB2, calcium fluorescence, read-out: hCB2 Ca EC50; for hCB2 Ca Span: percentage of the maximum CP55940 signal
Description: as §3, §4

SMILES | Ki [1] [nM] | EC50 [2] [nM] | hCB1 Ca Span [2] [%] | Ki [3] [nM] | EC50 [4] [nM] | hCB2 Ca Span [4] [%]
C[C@H](NC(=O)c1nn(Cc2ccc(F)cc2)c2ccccc12)c1cccc(C(N)=O)c1 [Example 11, N-[(1S)-1-(3-Carbamoylphenyl)ethyl]-1-[(4-fluorophenyl)methyl]-1H-indazole-3-carboxamide] | 7 | 27 | 86 | 34 | 50 | 48
CC(C)(NC(=O)c1nn(Cc2ccc(F)cc2)c2ccccc12)c1cccc(C(N)=O)c1 [Example 12, N-[2-(3-Carbamoylphenyl)propan-2-yl]-1-[(4-fluorophenyl)methyl]-1H-indazole-3-carboxamide] | 4 | 21 | 24 | 10 | 27 | 41
CC(C)(NC(=O)c1nn(Cc2ccc(F)cc2F)c2ccccc12)c1cccc(C(N)=O)c1 [Example 13, N-[2-(3-Carbamoylphenyl)propan-2-yl]-1-[(2,4-difluorophenyl)methyl]-1H-indazole-3-carboxamide] | 18 | 180 | 32 | 27 | 300 | 19
CC(C)(NC(=O)c1nn(CCCCCF)c2ccccc12)c1cccc(NC(N)=O)c1 [Example 25, N-{2-[3-(carbamoylamino)phenyl]propan-2-yl}-1-(5-fluoropentyl)-1H-indazole-3-carboxamide] | – | 570 | 65 | – | 170 | 51
CNC(=O)Nc1cccc(C(C)(C)NC(=O)c2nn(CC3CCC(F)(F)CC3)c3ccccc23)c1 [Example 26, 1-[(4,4-Difluorocyclohexyl)methyl]-N-(2-{3-[(methylcarbamoyl)amino]phenyl}propan-2-yl)-1H-indazole-3-carboxamide] | – | 16 | 110 | – | 34 | 61
CCCCCn1nc(C(=O)NC(C)(C)c2cccc(NC(=O)NC)c2)c2ccccc21 [Example 27, N-(2-{3-[(Methylcarbamoyl)amino]phenyl}propan-2-yl)-1-pentyl-1H-indazole-3-carboxamide] | – | 100 | 100 | – | 170 | 55
CNC(=O)Nc1cccc(C(C)(C)NC(=O)c2nn(CCCCCF)c3ccccc23)c1 [Example 28, 1-(5-Fluoropentyl)-N-(2-{3-[(methylcarbamoyl)amino]phenyl}propan-2-yl)-1H-indazole-3-carboxamide] | – | 30 | 100 | – | 65 | 61
CC(C)(NC(=O)c1nn(Cc2ccc(F)cc2)c2ccccc12)C1CCCN(C(N)=O)C1 (centres unmarked) [Example 29, N-[2-(1-Carbamoylpiperidin-3-yl)propan-2-yl]-1-[(4-fluorophenyl)methyl]-1H-indazole-3-carboxamide] | – | 140 | 75 | – | 46 | 36
CC(C)(NC(=O)c1nn(Cc2ccc(F)cc2)c2ccccc12)C1CCCN(CC(N)=O)C1 (centres unmarked) [Example 30, N-{2-[1-(Carbamoylmethyl)piperidin-3-yl]propan-2-yl}-1-[(4-fluorophenyl)methyl]-1H-indazole-3-carboxamide] | 48 | 330 | 40 | 21 | 63 | 12
CC(C)(NC(=O)c1nn(Cc2ccc(F)cc2)c2ccccc12)C1CCN(C(N)=O)CC1 [Example 31, N-[2-(1-Carbamoylpiperidin-4-yl)propan-2-yl]-1-[(4-fluorophenyl)methyl]-1H-indazole-3-carboxamide] | – | 1000 | 64 | – | 140 | 57
CC(C)(NC(=O)c1nn(Cc2ccc(F)cc2)c2ccccc12)C1CCN(CC(N)=O)CC1 [Example 32, N-{2-[1-(Carbamoylmethyl)piperidin-4-yl]propan-2-yl}-1-[(4-fluorophenyl)methyl]-1H-indazole-3-carboxamide] | – | 40 | 110 | – | 29 | 62
CC(C)(NC(=O)c1cn(Cc2ccc(F)cc2)c2ccccc12)c1cccc(C(N)=O)c1 [Example 33, N-[2-(3-Carbamoylphenyl)propan-2-yl]-1-[(4-fluorophenyl)methyl]-1H-indole-3-carboxamide] | – | 870 | 25 | – | 160 | 30
